Results published in patent publication US9434705B2, “L-setastine hydrochloride and preparation method thereof” (ANHUI QINGYUN PHARMACEUTICAL & CHEMICAL CO., LTD., priority 2011, dated 2016).

Legend:
[1] = system: guinea pigs; experiment: histamine-induced death of guinea pigs after oral dosing of test sample; assay type: in vivo, guinea pig; settings: for Number of death: gavage for two days, then histamine 20 mg/kg, deaths within 24 hours, + = died next day; for Death Percentage: histamine 20 mg/kg; for protective effect on histamine-induced death for guinea pigs: 0.16-0.68 mg/kg, result in words
Method: 1. Sample name: KL-001 (R-setastine hydrochloride prepared in embodiment 6), KL-002 (L-setastine hydrochloride prepared from embodiment 2, 3, 4, 5, or 6), and KL-003 (setastine hydrochloride racemic) provided by Anhui Kelong medicine research institute).
2. The specifications of content: There are three groups of each sample, which is high, medium, and small-dose group, wherein dosages for high, medium, small-dose group are 0.68 mg/kg, 0.32 mg/kg, and 0.16 mg/kg respectively. The dosages are considerable 20, 10, and 5 times comparing with the clinical dosages.
3. The preparation method for test sample: For the KL-001 sample, 84 ml of distilled water is added to KL-001 sample so as to obtain a large-dose group of KL-001, which is according to the gavage feeding volume of guinea pigs, which is 0.1 ml/100 g, which is the same as 0.68 mg/kg; and medium and small-does group of KL-001 are diluted by the high-dose group of KL-001 for double and quadruple times. For the KL-002 sample, 125 ml of distilled water is added to KL-002 sample to obtain a large-dose group of KL-002, which is according to the gavage feeding volume of guinea pigs, which is 0.1 ml/100 g, which is the same as 0.68 mg/kg; and medium and small-does group are diluted by the high-dose group for double and quadruple times. For KL-003 sample, 75 ml of distilled water is added to KL-003 sample so as to obtain a large-dose group of KL-003, which is according to the gavage feeding volume of guinea pigs, which is 0.1 ml/100 g, which is the same as 0.68 mg/kg; and medium and small-does group of KL-003 are diluted by the high-dose group of Kl-003 for double and quadruple times.
112 guinea pigs are fed in the feeding environment (to adapt in the environment) for three days, and are randomly divided into 10 groups, namely a control group, a high-dose group of KL-001, a medium-dose group of KL-001, a small-dose group of KL-001, a high-dose group of KL-002, a medium-dose group of KL-002, a small-dose group of KL-002, a high-dose group of KL-003, a medium-dose group of KL-003, and a small-dose group of KL-003. The dosage for high-dose group of Kl-001, KL-002, and Kl-003 is 0.68 mg/kg, and the dosage for medium-dose group of Kl-001, KL-002, and Kl-003 is 0.32 mg/kg, and the dosage for small-dose group of Kl-001, KL-002, and Kl-003 is 0.16 mg/kg, which are 20, 10, 5 times respectively comparing with the clinical dose. Each guinea pig from each group is fed by corresponding amounts of test sample for two days, which is according to the amount of 0.1 ml/100 g. Finally, each guinea pig is fed with lethal dose of histamine, which is 20 mg/kg after the last injection of test sample, and then observing the number of deaths of guinea pigs within 24 hours.

[2] = inventors' finding on antihistaminic effect and sedation of D-setastine hydrochloride; settings: result in words
[3] = system: patients; settings: racemic drug, China market; cited from earlier work
[4] = system: guinea pigs; settings: background statement; cited from earlier work

## CC(OCCN1CCCCCC1)(c1ccccc1)c1ccc(Cl)cc1.Cl (stereo not drawn)
[1]; 0.16 mg/kg (small dose)
  Number of death: 11
  Death Percentage: 100%
[1]; 0.32 mg/kg (medium dose)
  Number of death: 11
  Death Percentage: 100%
[1]; 0.68 mg/kg (high dose)
  Number of death: 11
  Death Percentage: 100%
[1]
  protective effect on histamine-induced death for guinea pigs: doesn't has the protective effect
[1]; listed as D-setastine hydrochloride
  protective effect on histamine-induced death for guinea pigs: no protective effect
[1]; listed as Kl-001
  protective effect on histamine-induced death for guinea pigs: doesn't has protective effect
[2]
  antihistaminic effect: no antihistaminic effect
  side effects of sedation: can produce side effects of sedation

## CC(OCCN1CCCCCC1)(c1ccccc1)c1ccc(Cl)cc1 (racemic) [KL-003]
[3]
  sedative side effects in clinical use: stronger sedative side effects
[4]
  histamine-induced bronchial spasms: inhibit
[1]; 0.16 mg/kg (small dose)
  Number of death: 6 + 2
  Death Percentage: 66%
[1]; 0.32 mg/kg (medium dose)
  Number of death: 3 + 1
  Death Percentage: 36%
[1]; 0.68 mg/kg (high dose)
  Number of death: 1 + 1
  Death Percentage: 16%
[1]
  protective effect on histamine-induced death for guinea pigs: significant protective effect
[1]; listed as setastine hydrochloride racemic
  protective effect on histamine-induced death for guinea pigs: have protective effects

## C[C@@](OCCN1CCCCCC1)(c1ccccc1)c1ccc(Cl)cc1 [KL-002]
[1]; 0.16 mg/kg (small dose)
  Number of death: 4 + 1
  Death Percentage: 45%
[1]; 0.32 mg/kg (medium dose)
  Number of death: 2
  Death Percentage: 18%
[1]; 0.68 mg/kg (high dose)
  Number of death: 0
  Death Percentage: 0%
[1]
  protective effect on histamine-induced death for guinea pigs: significant protective effect
[1]; listed as L-setastine hydrochloride
  protective effect on histamine-induced death for guinea pigs: have protective effects
[1]; comparison in words
  protective effect compared with setastine hydrochloride racemic: stronger
